Test results reported in US20240358808A1, “VACCINE FOR SARS-COV-2” (FLOW PHARMA, INC., priority 2021, published 2024).

Biological target: DRB3*0202 (Homo sapiens, UniProt P01903+P79483, A212P/D57E/F66Y/L67A/R103Q/R218S/R40L/S89Y/T80R/V86D/Y55F/Y59H)
Assay: peptide affinity binding assay (peptide-MHC binding)

Sequence of DRB3*0202 (P01903 26-254 limits assumed): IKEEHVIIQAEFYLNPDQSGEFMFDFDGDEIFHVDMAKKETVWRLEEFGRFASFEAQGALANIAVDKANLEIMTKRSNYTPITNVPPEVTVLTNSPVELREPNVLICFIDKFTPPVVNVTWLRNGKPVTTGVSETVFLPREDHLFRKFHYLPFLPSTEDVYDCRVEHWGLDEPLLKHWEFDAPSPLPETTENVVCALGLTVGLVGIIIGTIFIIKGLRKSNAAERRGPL
Sequence of DRB3*0202 (P79483 30-266 R40L/Y55F/D57E/Y59H/F66Y/L67A/T80R/V86D/S89Y/R103Q/A212P/R218S limits assumed): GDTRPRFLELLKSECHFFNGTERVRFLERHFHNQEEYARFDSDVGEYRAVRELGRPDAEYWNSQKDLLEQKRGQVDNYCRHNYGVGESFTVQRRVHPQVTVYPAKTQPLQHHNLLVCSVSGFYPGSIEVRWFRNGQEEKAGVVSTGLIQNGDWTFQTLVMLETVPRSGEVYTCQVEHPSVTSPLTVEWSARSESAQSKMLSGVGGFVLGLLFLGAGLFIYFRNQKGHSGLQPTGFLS

## CC(C)C[C@H](NC(=O)[C@@H](NC(=O)[C@H](Cc1c[nH]c2ccccc12)NC(=O)[C@H](C)NC(=O)[C@H](C)NC(=O)[C@@H](NC(=O)[C@H](Cc1ccccc1)NC(=O)[C@H](CCCCN)NC(=O)[C@H](C)N)C(C)C)[C@@H](C)O)C(=O)N[C@@H](CCCCN)C(=O)N[C@@H](C)C(=O)N[C@@H](C)C(=O)N[C@@H](C)C(=O)O [PADRE]
  peptide-MHC binding affinity before and after the addition of an infrared fluorophore ligand: essentially unchanged
